{"source": "PubChem BioAssay (NCI)", "test_in_all_cases": "inhibition of tumour cell growth, NCI panel, 48 h", "key": {"786-0 renal": {"test_system": "786-0 renal"}, "A549 NSCLC": {"test_system": "A549 NSCLC"}, "ACHN renal": {"test_system": "ACHN renal"}, "BT-549 breast": {"test_system": "BT-549 breast"}, "CAKI-1 renal": {"test_system": "CAKI-1 renal"}, "CCRF-CEM leukemia": {"test_system": "CCRF-CEM leukemia"}, "COLO 205 colon": {"test_system": "COLO 205 colon"}, "DU-145 prostate": {"test_system": "DU-145 prostate"}, "EKVX NSCLC": {"test_system": "EKVX NSCLC"}, "HCC-2998 colon": {"test_system": "HCC-2998 colon"}, "HCT-116 colon": {"test_system": "HCT-116 colon"}, "HCT-15 colon": {"test_system": "HCT-15 colon"}, "HL-60(TB) leukemia": {"test_system": "HL-60(TB) leukemia"}, "HOP-62 NSCLC": {"test_system": "HOP-62 NSCLC"}, "HOP-92 NSCLC": {"test_system": "HOP-92 NSCLC"}, "HS 578T breast": {"test_system": "HS 578T breast"}, "HT29 colon": {"test_system": "HT29 colon"}, "IGROV1 ovarian": {"test_system": "IGROV1 ovarian"}, "K-562 leukemia": {"test_system": "K-562 leukemia"}, "KM12 colon": {"test_system": "KM12 colon"}, "LOX IMVI melanoma": {"test_system": "LOX IMVI melanoma"}, "M14 melanoma": {"test_system": "M14 melanoma"}, "MALME-3M melanoma": {"test_system": "MALME-3M melanoma"}, "MCF7 breast": {"test_system": "MCF7 breast"}, "MDA-MB-231 breast": {"test_system": "MDA-MB-231 breast"}, "MDA-MB-435": {"test_system": "MDA-MB-435"}, "MDA-N": {"test_system": "MDA-N"}, "MOLT-4 leukemia": {"test_system": "MOLT-4 leukemia"}, "NCI-H226 lung": {"test_system": "NCI-H226 lung"}, "NCI-H23 lung": {"test_system": "NCI-H23 lung"}, "NCI-H460 lung": {"test_system": "NCI-H460 lung"}, "NCI-H522 lung": {"test_system": "NCI-H522 lung"}, "NCI/ADR-RES ovarian": {"test_system": "NCI/ADR-RES ovarian"}, "OVCAR-3 ovarian": {"test_system": "OVCAR-3 ovarian"}, "OVCAR-4 ovarian": {"test_system": "OVCAR-4 ovarian"}, "OVCAR-5 ovarian": {"test_system": "OVCAR-5 ovarian"}, "OVCAR-8 ovarian": {"test_system": "OVCAR-8 ovarian"}, "PC-3 prostate": {"test_system": "PC-3 prostate"}, "RPMI-8226 leukemia": {"test_system": "RPMI-8226 leukemia"}, "RXF 393 renal": {"test_system": "RXF 393 renal"}, "SF-268 CNS": {"test_system": "SF-268 CNS"}, "SF-295 CNS": {"test_system": "SF-295 CNS"}, "SF-539 CNS": {"test_system": "SF-539 CNS"}, "SK-MEL-2 melanoma": {"test_system": "SK-MEL-2 melanoma"}, "SK-MEL-28 melanoma": {"test_system": "SK-MEL-28 melanoma"}, "SK-MEL-5 melanoma": {"test_system": "SK-MEL-5 melanoma"}, "SK-OV-3 ovarian": {"test_system": "SK-OV-3 ovarian"}, "SN12C renal": {"test_system": "SN12C renal"}, "SNB-19 CNS": {"test_system": "SNB-19 CNS"}, "SNB-75 CNS": {"test_system": "SNB-75 CNS"}, "SR leukemia": {"test_system": "SR leukemia"}, "SW-620 colon": {"test_system": "SW-620 colon"}, "T-47D breast": {"test_system": "T-47D breast"}, "TK-10 renal": {"test_system": "TK-10 renal"}, "U251 CNS": {"test_system": "U251 CNS"}, "UACC-257 melanoma": {"test_system": "UACC-257 melanoma"}, "UACC-62 melanoma": {"test_system": "UACC-62 melanoma"}, "UO-31 renal": {"test_system": "UO-31 renal"}}, "note": "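Tested at 5 concentrations; 48 h exposure; 96-well plates; endpoints linearly interpolated, else capped at highest concentration. TGI: total growth inhibition.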", "data": [{"smiles": "c1ccc(-c2c(-c3[nH]c4ccccc4c3-c3ccccc3)[nH]c3ccccc23)cc1", "values": [{"measurement": "TGI", "setting": "786-0 renal", "result": 4.08, "unit": "µM"}, {"measurement": "TGI", "setting": "A549 NSCLC", "result": 13.5, "unit": "µM"}, {"measurement": "TGI", "setting": "ACHN renal", "result": 11.6, "unit": "µM"}, {"measurement": "TGI", "setting": "BT-549 breast", "result": 15, "unit": "µM"}, {"measurement": "TGI", "setting": "CAKI-1 renal", "result": 13.8, "unit": "µM"}, {"measurement": "TGI", "setting": "CCRF-CEM leukemia", "result": 14, "unit": "µM"}, {"measurement": "TGI", "setting": "COLO 205 colon", "result": 3.53, "unit": "µM"}, {"measurement": "TGI", "setting": "DU-145 prostate", "result": 10.8, "unit": "µM"}, {"measurement": "TGI", "setting": "EKVX NSCLC", "result": 14.1, "unit": "µM"}, {"measurement": "TGI", "setting": "HCC-2998 colon", "result": 3.94, "unit": "µM"}, {"measurement": "TGI", "setting": "HCT-116 colon", "result": 13.4, "unit": "µM"}, {"measurement": "TGI", "setting": "HCT-15 colon", "result": 14.3, "unit": "µM"}, {"measurement": "TGI", "setting": "HL-60(TB) leukemia", "result": 11.1, "unit": "µM"}, {"measurement": "TGI", "setting": "HOP-62 NSCLC", "result": 5.03, "unit": "µM"}, {"measurement": "TGI", "setting": "HOP-92 NSCLC", "result": 12.2, "unit": "µM"}, {"measurement": "TGI", "setting": "HS 578T breast", "result": 51.6, "unit": "µM"}, {"measurement": "TGI", "setting": "HT29 colon", "result": "> 100", "unit": "µM"}, {"measurement": "TGI", "setting": "IGROV1 ovarian", "result": 16.3, "unit": "µM"}, {"measurement": "TGI", "setting": "K-562 leukemia", "result": 36.8, "unit": "µM"}, {"measurement": "TGI", "setting": "KM12 colon", "result": 11.8, "unit": "µM"}, {"measurement": "TGI", "setting": "LOX IMVI melanoma", "result": 4.06, "unit": "µM"}, {"measurement": "TGI", "setting": "M14 melanoma", "result": 14.9, "unit": "µM"}, {"measurement": "TGI", "setting": "MALME-3M melanoma", "result": 31.2, "unit": "µM"}, {"measurement": "TGI", "setting": "MCF7 breast", "result": 11.9, "unit": "µM"}, {"measurement": "TGI", "setting": "MDA-MB-231 breast", "result": 13.8, "unit": "µM"}, {"measurement": "TGI", "setting": "MDA-MB-435", "result": 14.9, "unit": "µM"}, {"measurement": "TGI", "setting": "MDA-N", "result": 7.46, "unit": "µM"}, {"measurement": "TGI", "setting": "MOLT-4 leukemia", "result": 13.3, "unit": "µM"}, {"measurement": "TGI", "setting": "NCI-H226 lung", "result": 25.6, "unit": "µM"}, {"measurement": "TGI", "setting": "NCI-H23 lung", "result": 6.68, "unit": "µM"}, {"measurement": "TGI", "setting": "NCI-H460 lung", "result": 8.57, "unit": "µM"}, {"measurement": "TGI", "setting": "NCI-H522 lung", "result": 14.6, "unit": "µM"}, {"measurement": "TGI", "setting": "NCI/ADR-RES ovarian", "result": 13.3, "unit": "µM"}, {"measurement": "TGI", "setting": "OVCAR-3 ovarian", "result": 5.44, "unit": "µM"}, {"measurement": "TGI", "setting": "OVCAR-4 ovarian", "result": 8.78, "unit": "µM"}, {"measurement": "TGI", "setting": "OVCAR-5 ovarian", "result": 23.4, "unit": "µM"}, {"measurement": "TGI", "setting": "OVCAR-8 ovarian", "result": 15.6, "unit": "µM"}, {"measurement": "TGI", "setting": "PC-3 prostate", "result": 10.6, "unit": "µM"}, {"measurement": "TGI", "setting": "RPMI-8226 leukemia", "result": 11.9, "unit": "µM"}, {"measurement": "TGI", "setting": "RXF 393 renal", "result": 3.72, "unit": "µM"}, {"measurement": "TGI", "setting": "SF-268 CNS", "result": 21.5, "unit": "µM"}, {"measurement": "TGI", "setting": "SF-295 CNS", "result": 14.9, "unit": "µM"}, {"measurement": "TGI", "setting": "SF-539 CNS", "result": 21.3, "unit": "µM"}, {"measurement": "TGI", "setting": "SK-MEL-2 melanoma", "result": 22.1, "unit": "µM"}, {"measurement": "TGI", "setting": "SK-MEL-28 melanoma", "result": 25.7, "unit": "µM"}, {"measurement": "TGI", "setting": "SK-MEL-5 melanoma", "result": 14.8, "unit": "µM"}, {"measurement": "TGI", "setting": "SK-OV-3 ovarian", "result": 21, "unit": "µM"}, {"measurement": "TGI", "setting": "SN12C renal", "result": 3.8, "unit": "µM"}, {"measurement": "TGI", "setting": "SNB-19 CNS", "result": 19.3, "unit": "µM"}, {"measurement": "TGI", "setting": "SNB-75 CNS", "result": 14.9, "unit": "µM"}, {"measurement": "TGI", "setting": "SR leukemia", "result": 7.84, "unit": "µM"}, {"measurement": "TGI", "setting": "SW-620 colon", "result": 13.1, "unit": "µM"}, {"measurement": "TGI", "setting": "T-47D breast", "result": 8.44, "unit": "µM"}, {"measurement": "TGI", "setting": "TK-10 renal", "result": 22.4, "unit": "µM"}, {"measurement": "TGI", "setting": "U251 CNS", "result": 14.8, "unit": "µM"}, {"measurement": "TGI", "setting": "UACC-257 melanoma", "result": 25.1, "unit": "µM"}, {"measurement": "TGI", "setting": "UACC-62 melanoma", "result": 21.6, "unit": "µM"}, {"measurement": "TGI", "setting": "UO-31 renal", "result": 12.7, "unit": "µM"}]}]}
